Experimental data as given in patent US20090221436A1, “PROCESS FOR DETERMINING TARGET FUNCTION AND IDENTIFYING DRUG LEADS” (priority 2000, published 2009).

Experiments:
P38 MAP kinase [1] = target: T1, P38 MAP kinase (Homo sapiens, UniProt Q16539); conditions: stated as a known property of the ligand; cited from earlier work
T1 construct: purchased Sigma

P38 MAP kinase [2] = target: T1, P38 MAP kinase; experiment: HPLC based Chemical Array Assay: protein-bound compounds separated from free compounds, UV and mass spectrum of protein fraction; assay type: binding; conditions: for identity by mass spectrum of the compound extracted from the mixture and released from the protein: 5 uM P38 MAP kinase + 5 uM mixture of Quinine and 86002, Diol column
Protocol: (§1) Drug-like chemical compounds representing a collection of drug-like chemical scaffolds (Sigma-Aldrich, ICN, Calbiochem) were weighed and mixed to a final concentration of 20 uM each in 50 mM ammonium acetate pH 7, 10% methanol. 1 uM to 20 uM tubulin or P38 MAP kinase (Sigma) were dispensed into HPLC low volume sample cuvettes (Waters) and mixed with 0.5 uM to 20 uM compounds.
(§2) The compounds were eluted using an acetonitrile gradient past a UV detector and into a TOF mass spectrometer (Micromass LCT). […] In other mass spectrometry instruments, fragmentation can be achieved in a collision cell. The fragmentation pattern which is characteristic for each compound consists of the larger parent peak and other peaks representing fragments of the chemical compound or their isotopes. […] Alternatively, one or more characteristic isotope(s) of the parent peak representing the molecular weight of the compound was compared with the standard to identify the compound that bound the protein target. In another alternative analysis, the parent peak representing the molecular weight of the compound was itself compared with the standard to identify the compound. Sometimes, the combination of these methods was also used to identify the compound.

tubulin = experiment: as above; assay type: binding; conditions: 10 compound mixture 0.5 uM each, tubulin 0, 5 and 20 uM, GFF II column
Protocol: as §1, §2

T1 sequence (Q16539 whole entry): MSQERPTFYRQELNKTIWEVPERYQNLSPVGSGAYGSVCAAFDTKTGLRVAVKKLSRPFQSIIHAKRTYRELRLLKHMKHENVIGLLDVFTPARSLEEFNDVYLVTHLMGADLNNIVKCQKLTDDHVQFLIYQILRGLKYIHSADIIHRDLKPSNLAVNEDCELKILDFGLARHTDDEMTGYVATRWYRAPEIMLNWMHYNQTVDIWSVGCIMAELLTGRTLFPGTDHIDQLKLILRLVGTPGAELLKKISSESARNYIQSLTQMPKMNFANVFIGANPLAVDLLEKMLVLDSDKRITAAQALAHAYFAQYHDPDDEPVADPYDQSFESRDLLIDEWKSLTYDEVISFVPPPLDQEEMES

Structure (SMILES)	affinity for the P38 MAP kinase protein target (P38 MAP kinase [1])	mass spectrum of the collected protein fraction compared with the standard (P38 MAP kinase [2]; 5 uM P38 MAP kinase + 5 uM compound alone, Diol column)	identity by mass spectrum of the compound extracted from the mixture and released from the protein (P38 MAP kinase [2])	reduction of the compound's UV peak (unbound compound) with increasing P38 (P38 MAP kinase [2]; 2-compound mixture 5 uM each, P38 0, 2.5, 5 and 10 uM, Diol column)	level of the compound's characteristic peaks in the mass spectrum of the protein fraction (P38 MAP kinase [2]; 10 compound mixture 0.5 uM each, GFF II column)	reduction of the compound's UV peak (unbound compound) with increasing P38 (P38 MAP kinase [2]; 10 compound mixture 0.5 uM each, P38 0, 3.5 and 5 uM, GFF II column)	level of the compound's characteristic peak in the mass spectrum of the protein fraction (P38 MAP kinase [2]; 100 compound mixture 20 uM each, P38 2 uM, GFF II column)	reduction of the compound's UV peak (unbound compound) with increasing tubulin (tubulin)
Fc1ccc(-c2nc3n(c2-c2ccncc2)CCS3)cc1 [SKB86002]	micromolar affinity	corresponded to the 86002 standard	identified as 86002	concentration dependant reduction	at a level far higher than other peaks	concentration dependent reduction	at a level far higher than other peaks	negligible reduction
C=C[C@H]1CN2CC[C@H]1C[C@H]2[C@H](O)c1ccnc2ccc(OC)cc12.Cl [quinine, quinine monohydrochloride]			not quinine					
